Where a name gives a salt, the structure may show the parent alone. Read-outs that look alike come from different tables or passages of the source.
How the values were obtained:
[1] = Dynamic vapor sorption (DVS) / moisture sorption analysis; format: physicochemical; details: for hygroscopicity / moisture uptake at 60% RH / moisture uptake at 90% RH: DVS; for moisture uptake at 60% RH / moisture uptake at 90% RH: about 25° C.
Protocol: Compounds and polymorphs provided herein can be characterized by moisture sorption analysis. This analysis was performed using a Hiden IGAsorp Moisture Sorption instrument. Moisture sorption experiments were carried out at about 25° C. by performing an adsorption scan from about 40% to about 90% RH in steps of about 10% RH and a desorption scan from about […] to about 0% RH in steps of about −10% RH. A second adsorption scan from about 10% to about 40% RH was performed to determine the moisture uptake from a drying state to the starting humidity. Samples were allowed to equilibrate for about four hours at each point or until an asymptotic weight was reached. After the isothermal sorption scan, samples were dried for about one hour at elevated temperature (about 60° C.) to obtain the dry weight. XRPD analysis on the material following moisture sorption was performed to determine the solid form.
Dynamic vapor sorption (DVS) analysis was performed on polymorph Forms A, B, C, D, and E using the DVS instrument and parameters as described above. […] Hysteresis indicative of hemi-hydrate formation was observed.

[2] = Salt screen: solubility in water; format: physicochemical
From the text: Salts of a compound of Formula (I) were formed with L-tartaric acid, p-toluenesulfonic acid, D-glucaronic acid, ethane-1,2-disulfonic acid (EDSA), 2-naphthalenesulfonic acid (NSA), hydrochloric acid (HCl) (mono and bis), hydrobromic acid (HBr), citric acid, naphthalene-1,5-disulfonic acid (NDSA), DL-mandelic acid, fumaric acid, sulfuric acid, maleic acid, methanesulfonic acid (MSA), benzenesulfonic acid (BSA), ethanesulfonic acid (ESA), L-malic acid, phosphoric acid, and aminoethanesulfonic acid (taurine).

[3] = Grinding stability (mortar and pestle); format: physicochemical; details: for Form by XRPD after grinding: after both 2 and 5 minutes of grinding by hand; for Grinding (mortar & pestle): by hand, 2 and 5 min, XRPD
Protocol: Forms A, C, D, and E were subjected to grinding experiments performed using a mortar and pestle by hand. Samples were lightly grounded for 2 minutes then analyzed by XRPD. Material was then returned to the mortar and pestle and grounded for an additional 3 minutes, for a total of 5 minutes of grinding, and re-analyzed by XRPD.

[4] = Thermal stability (60° C.); details: for Thermal stability (60° C.): after 1 week; for polymorph Form changes by XRPD: held at 60° C. for 10 days
Protocol: Forms A, B, C, D, and E were held at 60° C. for 10 days followed by analysis by XRPD. In each case, 8 mL vials were charged with approximately 20 mg of material, with the exception of Form B for which 10 mg of material was charged. Samples equilibrated in an oven for 10 days.

[5] = Stability studies of packaged polymorph Forms (temperature and humidity storage); format: physicochemical; details: HPLC, Karl Fischer, XRPD
From the text: Polymorphs Form A and Form C were subjected to stability studies where several samples of each given Form were packaged and subjected to the given temperature and humidity conditions as described in Table 10. At each timepoint, a sample for that study was opened and evaluated by HPLC for purity, Karl Fischer for moisture content, and XRPD for confirming the polymorph Form.

[6] = Drying of Form A at 70° C.; format: physicochemical; details: Drying at 70° C. for six days
Protocol: 1. Procedure from CH2Cl2 and from IPA: Form C (1 g) was slurried in five volumes of dichloromethane. After holding for 15 hours, filtration, and drying, Form A was isolated in 82% yield. Scale-up was performed on a 20 g scale with a water-wet cake of Form C to yield Form A in 92% yield. […] Slurrying dry Form C in isopropyl alcohol using a similar method also yielded Form A.

[7] = Hold in humidity chambers at 9% RH and 95% RH; format: physicochemical; details: after 1 week
[8] = Solubility of polymorph Forms (H2O, SGF); format: physicochemical
[9] = Pharmacokinetics, single oral dose; format: in vivo; details: both sexes, human, plasma, healthy adult subjects, fasting, range over doses
Protocol: A randomized, double-blind, placebo-controlled, single and repeat dose study was conducted to evaluate the pharmacokinetics (PK) of a compound of Formula (I) Form C polymorph when orally administered to healthy adult male and female subjects. Subjects received a single oral dose of a compound of Formula (I) Form C polymorph under fasting conditions at a dose of 1 mg, 2 mg, 5 mg, 10 mg, 20 mg, and 30 mg. Blood samples were collected for plasma analysis pre-dose, and at 0.5, 1, 1.5, 2, 3, 4, 6, 9, 12, 16, and 24 hours.

[10] = Stability of the capsules in a container closure; format: physicochemical
Protocol: The stability of the capsules in a container closure was evaluated at long-term and accelerated conditions. Container closure conditions used were (i) 60-cc high density polyethylene (HDPE), wide mouth, round, white bottle; and (ii) child resistant 33-mm white plastic cap with a heat induction foil inner seal liner. The containers containing the capsules were subjected to the following conditions: (1) −20° C.±5° C.; (2) 5° C.±3° C.; (3) 25° C.±2° C., 60% RH±5% RH; (4) 40° C.±2° C., 75% RH±5% RH; (5) 25° C.±2° C., 60% RH±5% RH, open bottle; (6) 40° C.±2° C., 75% RH±5% RH, open bottle; and (7) 30° C.±2° C., 65% RH±5% RH. Samples of the capsule formulations were analyzed at certain time intervals. The API remained stable at 25° C.±2° C., 60% RH±5% RH and 40° C. 2° C., […]±5% RH for at least 6 months. The API remained stable for at least 6 month at −20° C. 5° C., 5° C. 3° C. when stored in induction-sealed HDPE bottles. The API was stable for at least 6 months at 25° C.±2° C., 60% RH±5% RH and 40° C.±2° C., 75% RH±5% RH in open HDPE bottles.

[11] = Pharmacokinetics, repeat oral dose; format: in vivo; details: both sexes, human, plasma; Day 14; repeat oral dosing 1, 2, 5, 10 mg (QD Days 1 and 14, BID Days 2 through 13); range over doses
Protocol: Repeat oral dose administration of a compound of Formula (I) Form C polymorph was administered once per day (QD) in the morning on Days 1 and 14 and twice daily (BID) on Days 2 through 13. Administration of the compound occurred after an overnight fast on Days 1 and 14. Blood samples were collected for plasma analysis on Day 14 following 1, 2, 5 and 10 mg repeat dosing. Blood samples were collected on Day 14 prior to dosing and at 0.5, 1, 1.5, 2, 3, 4, 6, 9, 12, 16 and 24 hours after administration to determine plasma concentrations of the compound of Formula (I) Form C polymorph. Doses of 1 mg, 2 mg, 5 mg, and 10 mg gave a Cmax value range of greater than 10 ng/mL to less than 1,000 ng/mL in a dose dependent manner. In addition doses of 1 mg, 2 mg, 5 mg, and 10 mg gave an AUCtau,ss value range of greater than 100 ng*h/mL to less than 2,500 ng*h/mL, in a dose dependent manner. For the BID regimens, the AUC over a 24 hour interval was obtained by multiplying AUCtau,ss by 2.

[12] = PBS at pH 7.4, 37° C., 24 hours, 5 μM; cited from earlier work
[13] = human plasma, 37° C., 5 μM; cited from earlier work

C[C@H](Nc1ncnc2[nH]cnc12)c1cc2cccc(Cl)c2c(=O)n1-c1ccccc1 [Bis HCL]
Moisture Sorption (wt % water) ([1]; 60% RH): 60% RH: 9.9 wt % water | Moisture Sorption (wt % water) ([1]; 90% RH): 90% RH: 12.3 wt % water | Solubility in water [2]: 11800 µg/mL

C[C@H](Nc1ncnc2[nH]cnc12)c1cc2cccc(Cl)c2c(=O)n1-c1ccccc1 [EDSA]
Moisture Sorption (wt % water) ([1]; 60% RH): 60% RH: 7.5 wt % water | Moisture Sorption (wt % water) ([1]; 90% RH): 90% RH: 28.1 wt % water | Solubility in water [2]: 9400 µg/mL

C[C@H](Nc1ncnc2[nH]cnc12)c1cc2cccc(Cl)c2c(=O)n1-c1ccccc1 [Form A, (S)-3-(1-(9H-purin-6-ylamino)ethyl)-8-chloro-2-phenylisoquinolin-1(2H)-one]
Form by XRPD after grinding [3]: remain consistent | Grinding (mortar & pestle) [3]: remained Form | Moisture Sorption (wt % water) ([1]; 60% RH, listed as Free Form A): 60% RH: 0.7 wt % water | Moisture Sorption (wt % water) ([1]; 90% RH, listed as Free Form A): 90% RH: 2.6 wt % water | DVS ([1]; @ 60% RH): 0.7% @ 60% RH | DVS ([1]; @ 90% RH): 2.6% @ 90% RH | hygroscopicity [1]: slightly hygroscopic | moisture uptake at 60% RH ([1]; 60% RH): 0.7 wt % | moisture uptake at 90% RH ([1]; 90% RH): 2.6 wt % | Thermal stability (60° C.) [4]: stable after 1 | polymorph Form changes by XRPD [4]: No polymorph Form changes were observed | instability of the polymorphic Form ([5]; Double LDPE bags in fiberboard drum, 40° C. ± 2° C./75% RH ± 5% RH, 1, 2, 3, 6, and 12 months): no indication of instability of the polymorphic Form | degradation in chemical or chiral purity [6]: no degradation in chemical or chiral purity | changes in Form [7]: no changes in Form | Solubility in water ([2]; listed as Free Form A): 30 µg/mL | Solubility (mg/mL) ([8]; H2O): 0.030 (H2O) mg/mL | Solubility (mg/mL) ([8]; SGF): 21.800 (SGF) mg/mL

C[C@H](Nc1ncnc2[nH]cnc12)c1cc2cccc(Cl)c2c(=O)n1-c1ccccc1 [Form B, (S)-3-(1-(9H-purin-6-ylamino)ethyl)-8-chloro-2-phenylisoquinolin-1(2H)-one]
DVS ([1]; @ 60% RH): 1.0% @ 60% RH | DVS ([1]; @ 90% RH): 1.7% @ 90% RH | hygroscopicity [1]: slightly hygroscopic | moisture uptake at 60% RH ([1]; 60% RH): 1.0 wt % | moisture uptake at 90% RH ([1]; 90% RH): 1.7 wt % | Thermal stability (60° C.) [4]: stable after 1 | polymorph Form changes by XRPD [4]: No polymorph Form changes were observed

C[C@H](Nc1ncnc2[nH]cnc12)c1cc2cccc(Cl)c2c(=O)n1-c1ccccc1 [Form C, (S)-3-(1-(9H-purin-6-ylamino)ethyl)-8-chloro-2-phenylisoquinolin-1(2H)-one]
Form by XRPD after grinding [3]: remain consistent | Grinding (mortar & pestle) [3]: remained Form | DVS ([1]; @ 60% RH): 4.2% @ 60% RH | DVS ([1]; @ 90% RH): 4.9% @ 90% RH | hygroscopicity [1]: moderately hygroscopic | moisture uptake at 60% RH ([1]; 60% RH): 4.2% | moisture uptake at 90% RH ([1]; 90% RH): 4.9% | Thermal stability (60° C.) [4]: stable after 1 | polymorph Form changes by XRPD [4]: No polymorph Form changes were observed | instability of the polymorphic Form ([5]; LDPE bags, foil or Mylar bag, HDPE drum, 5° C./60% RH, 25° C./60% RH, 40° C./75% RH, up to 9 months): no indication of instability of the polymorphic Form | changes in Form [7]: no changes in Form | Cmax ([9]; single oral dose 1, 2, 5, 10, 20, 30 mg): 10 to 1500 ng/mL | half-life ([9]; single oral dose 1 to 30 mg): 3 to 10 h | AUC(0-t) ([9]; single oral dose 1 to 30 mg, read-out: AUC0-24): 100 to 4000 ng·h/mL | Solubility (mg/mL) ([8]; H2O): 0.001 (H2O) mg/mL | Solubility (mg/mL) ([8]; SGF): 9.133 (SGF) mg/mL | time the API remained stable ([10]; capsules in HDPE bottle, 25° C.±2° C., 60% RH±5% RH and 40° C. 2° C., 45% RH±5% RH): at least 6 months | time the API was stable ([10]; capsules, 25° C.±2° C., 60% RH±5% RH and 40° C.±2° C., 75% RH±5% RH, open HDPE bottles): at least 6 months | time the API remained stable ([10]; capsules, −20° C. 5° C., 5° C. 3° C., induction-sealed HDPE bottles): at least 6 month | AUC [11]: 100 to 2500 ng·h/mL | Cmax at 14 days [11]: 10 to 1000 ng/mL

C[C@H](Nc1ncnc2[nH]cnc12)c1cc2cccc(Cl)c2c(=O)n1-c1ccccc1 [Form D, (S)-3-(1-(9H-purin-6-ylamino)ethyl)-8-chloro-2-phenylisoquinolin-1(2H)-one]
Grinding (mortar & pestle) [3]: amorphous | DVS ([1]; @ 60% RH): 0.4% @ 60% RH | DVS ([1]; @ 90% RH): 1.7% @ 90% RH | hygroscopicity [1]: slightly hygroscopic | moisture uptake at 60% RH ([1]; 60% RH): 0.4 wt % | moisture uptake at 90% RH ([1]; 90% RH): 1.7 wt % | Thermal stability (60° C.) [4]: stable after 1 | polymorph Form changes by XRPD [4]: No polymorph Form changes were observed

C[C@H](Nc1ncnc2[nH]cnc12)c1cc2cccc(Cl)c2c(=O)n1-c1ccccc1 [NDSA]
Solubility in water [2]: 300 µg/mL

C[C@H](Nc1ncnc2[nH]cnc12)c1cc2cccc(Cl)c2c(=O)n1-c1ccccc1 [NSA]
Moisture Sorption (wt % water) ([1]; 60% RH): 60% RH: 0.3 wt % water | Moisture Sorption (wt % water) ([1]; 90% RH): 90% RH: 0.7 wt % water | Solubility in water [2]: 50 µg/mL

O=C(O)CCCc1ccc(N(CCCl)CCCl)cc1 [chlorambucil]
chemical stability [12]: largely hydrolyzed

CC(C)[N+](C)(CCOC(=O)C1c2ccccc2Oc2ccccc21)C(C)C [propantheline]
plasma stability [13]: intermediate plasma stability

CCCOc1cc(N)ccc1C(=O)OCCN(CC)CC [propoxycaine]
plasma stability [13]: low plasma stability
